Consider 1 molecule from ChEMBL document CHEMBL4354807, “Natural Product Albiziabioside A Conjugated with Pyruvate Dehydrogenase Kinase Inhibitor Dichloroacetate To Induce Apoptosis-Ferroptosis-M2-TAMs Polarization for Combined Cancer Therapy” (J Med Chem, 2019).

One may read the IC50 as the point on the concentration scale where inhibition reaches its midpoint.

The subject of series [1] is MCF7. The experiment in a line: Induction of apoptosis in human MCF7 cells assessed as upregulation of cytochrome C expression at 2 uM after 48 hrs by Western blot analysis relative to control. Format: functional. A general note: Immunoblotting shows a protein as a band on a membrane.
The test system of series [2] is Mus musculus. The experiment in a line: Modulation of tumor immunosuppressive activity in BALB/c mouse xenografted with mouse 4T1 cells assessed as increase in TNFalpha expression in tumor administered intratumorally every other day for 14 days measured at 2 days post-last dose by ELISA. In kind it is functional, organism-based.
Series [3] concerns Mus musculus. Nature of the series: Modulation of tumor immunosuppressive activity in BALB/c mouse xenografted with mouse 4T1 cells assessed as increase in IFNgamma expression in serum administered intratumorally every other day for 14 days measured at 2 days post-last dose by ELISA. Format: functional, organism-based. (In general: ELISA stands for enzyme-linked immunosorbent assay.)

Series [4] deals with MCF7. Nature of the series: Induction of apoptosis in human MCF7 cells assessed as late apoptotic cells at 2 uM after 24 hrs by Annexin V-FITC/propidium iodide staining-based flow cytometric analysis (reference value: 2.97 %). Format: functional. In general terms: A flow cytometer gives signals particle by particle.
For series [5], the system named is Mus musculus. Nature of the series: Modulation of tumor immunosuppressive activity in BALB/c mouse xenografted with mouse 4T1 cells assessed as increase in TNFalpha expression in serum administered intratumorally every other day for 14 days measured at 2 days post-last dose by ELISA. Format: functional, organism-based.
The nature of series [6]: Toxicity in BALB/c nude mouse xenografted with human MCF7 cells assessed as mouse death at 2 mg/kg, iv administered every 2 days for 2 weeks measured after 14 days. The note with it: in vivo, 336 h. Format: organism-based.
The test system of series [7] is Mus musculus. The experiment in a line: Modulation of tumor immunosuppressive activity in BALB/c mouse xenografted with mouse 4T1 cells assessed as increase in IL12 expression in serum administered intratumorally every other day for 14 days measured at 2 days post-last dose by ELISA. In kind it is functional, organism-based.
Series [8] relates to MCF7. The experiment in a line: Induction of ferroptosis in human MCF7 cells assessed as cell death at 2 uM pretreated with iron chelating agent deferoxamine followed by compound treatment by MTT assay. Format: functional, cell-based.
Series [9] has as its system MCF7. The experiment in a line: Induction of mitochondrial dysfunction in human MCF7 cells assessed as cell population with mitochondrial membrane potential collapse at 2 uM after 24 hrs by JC1 staining-based FACScalibur flow cytometry analysis (reference value: 2.74 %). Format: functional.
Series [10] deals with MCF7. The experiment in a line: Anticancer activity against human MCF7 cells overexpressing PDK assessed as reduction in cell viability after 72 hrs by MTT assay. Format: functional, cell-based. The conditions noted are these: MCF7, 72 h.
Series [11] deals with MCF7. The experiment in a line: Induction of apoptosis in human MCF7 cells assessed as early apoptotic cells at 2 uM after 24 hrs by Annexin V-FITC/propidium iodide staining-based flow cytometric analysis (reference value: 3.53 %). In kind it is functional.
Series [12] in a line: Toxicity in BALB/c nude mouse xenografted with human MCF7 cells assessed as effect on heart at 2 mg/kg, iv administered every 2 days for 2 weeks measured after 14 days by hematoxylin and eosin staining based histopathological analysis. In kind it is organism-based. The note with it: in vivo, 336 h.
Series [13] can be described thus: Toxicity in BALB/c nude mouse xenografted with human MCF7 cells assessed as effect on ALP level in blood at 2 mg/kg, iv administered every 2 days for 2 weeks measured after 14 days. In kind it is organism-based. The note with it: in vivo, 336 h.

Active and inactive are the calls of the source. No cut-off for these calls is given here.

Consider `CC1(C)CC[C@]2(C(=O)O)CC[C@]3(C)C(=CC[C@@H]4[C@@]5(C)CC[C@H](O[C@@H]6O[C@H](CO[C@@H]7OC[C@H](O)[C@H](O)[C@H]7O)[C@@H](O)[C@H](O)[C@H]6NC(=O)C(Cl)Cl)C(C)(C)[C@@H]5CC[C@]43C)[C@@H]2C1`, for which the “fold change (FC)” value in [1] was determined as 4.4. Moreover, the result in [2], in [3], in series [5] and in series [7] was Active. In addition, the Activity is listed as 22.92% in [4]; “Non-Toxic” in series [6]; 46.39% in [9]; 25.16% in series [11]; “Non-Toxic” in series [12]; “Non-Toxic” in [13]. Moreover, the outcome in series [8] was inactive. Also, the half-maximal inhibitory concentration (IC50) in [10] is 430 nM.
